For 31 molecules, EC50 and IC50 results are on record in US20100298300A1, “TRIAZOLOPYRAZINE COMPOUNDS USEFUL FOR THE TREATMENT OF DEGENERATIVE & INFLAMMATORY DISEASES” (priority 2006, published 2010).

The structures appear in SMILES notation. Some results are limits rather than exact numbers.

Usually EC50 stands for the concentration that produces a half-maximal response. A low value points to higher potency in that assay. In general, IC50 refers to the midpoint of a concentration-inhibition curve. Read a high IC50 as a need for much substance.

Assay [1] deals with TNFα release by human PBMCs. In words: Cytokine release by LPS stimulated human PBMCs (TNFα ELISA). In kind it is cell-based. Conditions: PBMC, 24 h, Table 5, LPS 1 μg/mL. Here is the method: For the assay PBMCs are seeded at 2.5E6 cells/mL in 160 μL in 96-well plates (Nunc). Serial dilution of the test compounds are made first in DMSO (Sigma) and then diluted 50-fold in M199 medium (Gibco) containing 1% heat-inactivated FBS. Compounds are further 1/10 diluted in the assay plates to obtain final DMSO concentration of 0.2%. Cells are preincubated with the compounds for 1 hr at 37° C., 5% CO2. Then, cells are stimulated with LPS (Escherichia coli serotype 026:B6, Cat. No. L2654, Sigma) that is added in a volume of 20 μL to a final concentration of 1 μg/mL and cells are further cultured for 24 hr. The plates are centrifuged and the supernatant is collected and stored at −80° C. until analysis of appropriate dilutions in ELISAs.
After 4 hr incubation at RT, blocking buffer is removed and plates are washed once with PBST (1×PBS with 0.05% Tween-20 (Sigma)). Then, 40 μL of sample is transferred to the ELISA plates and plates are incubated at 4° C. […] After 2 h of incubation at RT, plates are washed as described above and 35 μL/well of a 1/2000 dilution of streptavidin-HRP conjugate (Cat. No. SNN2004, Biosource) in buffer D is added. After 45 min, plates are washed as described above and incubated for 5 min with 50 μL/well BM Chemiluminescence ELISA Substrate POD (Roche). Readout is performed on the Luminoscan Ascent Luminometer (Labsystems) with an integration time of 100 msec delivering raw data (RLU: relative luminescence units). The following controls are included in the experiments, a maximal signal control, in which the cells are activated by LPS but only the 0.2% DMSO vehicle (and thus no compound) is added. […] A minimal signal control is also included in these experiments. Here, cells are not triggered. […] Where compounds are tested at 8 concentrations (1/3 serial dilution), EC50-values can be calculated by curve fitting of the means of the PIN data achieved for a compound at each test concentration.
For orientation: ELISA stands for enzyme-linked immunosorbent assay.

Another assay deals with T1, MAPKAPK5 (Homo sapiens, UniProt Q8IW41).
T1 sequence (Q8IW41 1-471 isoform Q8IW41-2): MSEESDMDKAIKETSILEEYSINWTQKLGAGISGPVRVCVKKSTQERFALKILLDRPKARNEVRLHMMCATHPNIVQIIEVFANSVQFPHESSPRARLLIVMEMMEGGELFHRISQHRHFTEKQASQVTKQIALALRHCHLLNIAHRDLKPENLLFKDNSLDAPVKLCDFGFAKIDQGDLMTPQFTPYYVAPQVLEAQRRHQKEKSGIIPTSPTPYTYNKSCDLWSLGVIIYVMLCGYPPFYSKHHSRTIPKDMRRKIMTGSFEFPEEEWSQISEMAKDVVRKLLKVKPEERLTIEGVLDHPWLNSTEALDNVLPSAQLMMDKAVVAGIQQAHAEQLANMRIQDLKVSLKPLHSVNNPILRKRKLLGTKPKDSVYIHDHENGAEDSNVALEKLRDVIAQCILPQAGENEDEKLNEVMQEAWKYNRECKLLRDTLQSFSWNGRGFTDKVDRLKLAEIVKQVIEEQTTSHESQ
As to the kind of experiment: MAPKAP-K5 assay (FlashPlate kinase assay).

Assay [2] deals with MMP1 expression by activated primary synovial fibroblasts. In words: 'MMP assay': MMP1 expression by complex trigger activated synovial fibroblasts (MMP1 ELISA). In kind it is cell-based. Conditions: Homo sapiens, Fibroblast, RASFs, complex trigger, 48 hrs, MMP1 ELISA.

In the case of `CN1CCN(c2ccc(Nc3ncc(-c4cn[nH]c4)n4ncnc34)cc2)CC1` [Compound 2], the EC50 in assay [1] and in assay [2] (Table 3) was greater than 1000 nM in each case. At MAPKAPK5, this molecule returned an IC50 greater than 1000 nM.

Take `CN1CCN(c2ccc(Nc3ncc(-c4ccc(C(N)=O)cc4)n4ncnc34)cc2)CC1` [Compound 3]: the EC50 in assay [1] was greater than 1000 nM; in assay [2] (Table 3), 101 to 500 nM. This molecule showed an IC50 against MAPKAPK5 greater than 1000 nM.

For the molecule `CN1CCN(c2ccc(Nc3ncc(-c4cc[nH]c(=O)c4)n4ncnc34)cc2)CC1` [Compound 4, 4-(8-(4-(4-methylpiperazin-1-yl)phenylamino)-[1,2,4]triazolo[1,5a]pyrazin-5-yl)pyridin-2(1H)-one], the EC50 in assay [1] and in assay [2] (Table 3) was greater than 1000 nM each time. The molecule further displayed an IC50 against MAPKAPK5 greater than 1000 nM.

Take `NC(=O)c1ccc(-c2cnc(Nc3ccc(N4CCOCC4)cc3)c3ncnn23)cc1` [Compound 5]: the results for the EC50 in assay [1] and in assay [2] (Table 3) were greater than 1000 nM and 101 to 500 nM, respectively. For the same molecule, the IC50 against MAPKAPK5 was greater than 1000 nM.

Take `CN1CCN(c2ccc(Nc3ncc(-c4csc(C(N)=O)c4)n4ncnc34)cc2)CC1` [Compound 6, 4-{8-[4-(4-Methyl-piperazin-1-yl)-phenylamino]-[1,2,4]triazolo[1,5-a]pyrazin-5-yl}-thiophene-2-carboxylic acid amide]: the figures for the EC50 in assay [1] and in assay [2] (Table 3) were greater than 1000 nM and 101 to 500 nM, respectively. The molecule also had an IC50 at MAPKAPK5 of 1 to 100 nM.

On to `CN1CCN(c2ccc(Nc3ncc(-c4ccc(C(N)=O)c(F)c4)n4ncnc34)cc2)CC1` [Compound 7], for which the EC50 in assay [1] and in assay [2] (Table 3) was greater than 1000 nM each time. This molecule also showed an IC50 at MAPKAPK5 greater than 1000 nM.

In the case of `CN1CCN(c2ccc(Nc3ncc(-c4ccc(C(N)=O)cc4F)n4ncnc34)cc2)CC1` [Compound 8], the values for the EC50 in assay [1] and in assay [2] (Table 3) were greater than 1000 nM and 501 to 1000 nM, respectively. Further, at MAPKAPK5, the IC50 was greater than 1000 nM.

Turning to `CN1CCN(c2ccc(Nc3ncc(-c4ccc(C(N)=O)s4)n4ncnc34)cc2)CC1` [Compound 9, 5-{8-[4-(4-Methyl-piperazin-1-yl)-phenylamino]-[1,2,4]triazolo[1,5-a]pyrazin-5-yl}-thiophene-2-carboxylic acid amide], the values for the EC50 in assay [1] and in assay [2] (Table 3) were 101 to 500 nM and 501 to 1000 nM, respectively. The IC50 on MAPKAPK5 lay in the range of 501 to 1000 nM.

With `NC(=O)c1ccc(-c2cnc(Nc3ccc(N4CCOCC4)cc3)c3ncnn23)c(F)c1` [Compound 10], the EC50 is greater than 1000 nM in assay [1] and 501 to 1000 nM in assay [2] (Table 3). In addition, the IC50 at MAPKAPK5 was greater than 1000 nM.

In the case of `NC(=O)c1ccc(-c2cnc(Nc3ccc(N4CCOCC4)cc3)c3ncnn23)cc1F` [Compound 11], the EC50 in assay [1] is greater than 1000 nM; in assay [2] (Table 3), 101 to 500 nM. On MAPKAPK5, the IC50 was greater than 1000 nM.

As to `Cc1[nH]ncc1-c1cnc(Nc2ccc(N3CCOCC3)cc2)c2ncnn12` [Compound 12, 5-(5-Methyl-1H-pyrazol-4-yl)-N-(4-morpholinophenyl)-[1,2,4]triazolo[1,5-a]pyrazin-8-amine], the values for the EC50 in assay [1] and in assay [2] (Table 3) were greater than 1000 nM and 501 to 1000 nM, respectively. At MAPKAPK5, this molecule gave an IC50 of 501 to 1000 nM.

As for `NC(=O)c1ccc(-c2cnc(Nc3ccc(N4CCOCC4)cc3)c3ncnn23)s1` [Compound 13], the figures for the EC50 in assay [1] and in assay [2] (Table 3) were greater than 1000 nM and 101 to 500 nM, respectively. At MAPKAPK5, this molecule returned an IC50 greater than 1000 nM.

Take `NC(=O)c1c(F)cc(-c2cnc(Nc3ccc(N4CCOCC4)cc3)c3ncnn23)cc1F` [Compound 14]: the EC50 in assay [1] and in assay [2] (Table 3) was greater than 1000 nM throughout. This molecule also returned an IC50 against MAPKAPK5 greater than 1000 nM.

With `NC(=O)c1cc(-c2cnc(Nc3ccc(N4CCOCC4)cc3)c3ncnn23)cs1` [Compound 15, 4-[8-(4-Morpholin-4-yl-phenylamino)-[1,2,4]triazolo[1,5-a]pyrazin-5-yl]-thiophene-2-carboxylic acid amide], the EC50 lay within 501 to 1000 nM in assay [1] and 101 to 500 nM in assay [2] (Table 3). On MAPKAPK5, the IC50 lay within 101 to 500 nM.

On to `Cc1[nH]ncc1-c1cnc(Nc2ccc(N3CCN(C)CC3)cc2)c2ncnn12` [Compound 16, 5-(5-Methyl-1H-pyrazol-4-yl)-N-(4-(4-methylpiperazin-1-yl)phenyl)-[1,2,4]triazolo[1,5-a]pyrazin-8-amine], for which the EC50 in assay [1] and in assay [2] (Table 3) was greater than 1000 nM throughout. The IC50 against MAPKAPK5 was greater than 1000 nM.

With `Fc1cc(Nc2ncc(-c3cn[nH]c3)n3ncnc23)ccc1N1CCOCC1` [Compound 17, (3-Fluoro-4-morpholinophenyl)-5-(1H-pyrazol-4-yl)-[1,2,4]triazolo[1,5-a]pyrazin-8-amine], the EC50 in assay [1] and in assay [2] (Table 3) was greater than 1000 nM in each case. Moreover, at MAPKAPK5, the IC50 is greater than 1000 nM.

`Clc1cc(Nc2ncc(-c3cn[nH]c3)n3ncnc23)ccc1N1CCOCC1` [Compound 18]: the EC50 was greater than 1000 nM in assay [1] and 501 to 1000 nM in assay [2] (Table 3). For the same molecule, at MAPKAPK5, the IC50 was greater than 1000 nM.

As to `NC(=O)c1cc(Nc2ncc(-c3cn[nH]c3)n3ncnc23)ccc1N1CCOCC1` [Compound 19, 5-(5-(1H-Pyrazol-4-yl)-[1,2,4]triazolo[1,5-a]pyrazin-8-ylamino)-2-morpholinobenzamide], the EC50 in assay [1] and in assay [2] (Table 3) was greater than 1000 nM throughout. In addition, the IC50 on MAPKAPK5 is greater than 1000 nM.

For `c1nc2c(Nc3ccc(OCCN4CCOCC4)cc3)ncc(-c3cn[nH]c3)n2n1` [Compound 20], the EC50 in assay [1] and in assay [2] (Table 3) was greater than 1000 nM throughout. On MAPKAPK5, this molecule came in with an IC50 greater than 1000 nM.

For `NC(=O)c1cc(-c2cnc(Nc3ccc(OCCN4CCOCC4)cc3)c3ncnn23)cs1` [Compound 21, 4-(8-(4-(2-Morpholinoethoxy)phenylamino)-[1,2,4]triazolo[1,5-a]pyrazin-5-yl)thiophene-2-carboxamide], the figures for the EC50 in assay [1] and in assay [2] (Table 3) were greater than 1000 nM and 101 to 500 nM, respectively. This molecule displayed an IC50 at MAPKAPK5 of 101 to 500 nM.

`O=C1NCc2cc(-c3cnc(NC4CCC4)c4ncnn34)ccc21` [Compound 182] returned a half-maximal inhibitory concentration (IC50) on MAPKAPK5 of 101 to 500 nM. In assay [2] (Table 3), this molecule came in with a concentration giving a half-maximal response (EC50) greater than 1000 nM.

The molecule `CC(C)(C)N1CCN(c2ccc(Nc3ncc(-c4coc(C(N)=O)c4)n4ncnc34)cc2)CC1` [Compound 183] displayed an IC50 against MAPKAPK5 of 1 to 100 nM. This molecule also had an EC50 in assay [2] (Table 3) greater than 1000 nM.

The molecule `O=C1NCc2cc(-c3cnc(NCC4CCCCC4)c4ncnn34)ccc21` [Compound 184] displayed an IC50 at MAPKAPK5 of 101 to 500 nM. In assay [2] (Table 3), this molecule returned an EC50 greater than 1000 nM.

`O=C1NCc2cc(-c3cnc(NC4CCNCC4)c4ncnn34)ccc21` [Compound 185] had an IC50 at MAPKAPK5 greater than 1000 nM. In assay [2] (Table 3), this molecule showed an EC50 greater than 1000 nM.

Regarding `O=C(NCc1cc(-c2ccccc2)on1)c1ccc(Nc2ncc(-c3cn[nH]c3)n3ncnc23)cc1` [Compound 192], on MAPKAPK5, the IC50 is greater than 1000 nM. This molecule also gave an EC50 in assay [2] (Table 4) of 101 to 500 nM.

Turning to `O=C(Nc1ccc(N2CCOCC2)nc1)c1ccc(Nc2ncc(-c3ccc4c(c3)CNC4=O)n3ncnc23)cc1` [Compound 193], on MAPKAPK5, the IC50 was greater than 1000 nM. Besides, in assay [2] (Table 4), the EC50 was greater than 1000 nM.

Regarding `O=C(Nc1ccc(N2CCOCC2)nc1)c1ccc(Nc2ncc(-c3cn[nH]c3)n3ncnc23)cc1` [Compound 194], on MAPKAPK5, the IC50 is greater than 1000 nM. Also, in assay [2] (Table 4), the EC50 lay within 501 to 1000 nM.

On to `O=C(N[C@@H]1CCN(Cc2ccccc2)C1)c1ccc(Nc2ncc(-c3ccc4c(c3)CNC4=O)n3ncnc23)cc1` [Compound 195], for which the IC50 against MAPKAPK5 fell in the range of 101 to 500 nM. The EC50 in assay [2] (Table 4) was greater than 1000 nM.

As for `O=C(N[C@H]1CCN(Cc2ccccc2)C1)c1ccc(Nc2ncc(-c3ccc4c(c3)CNC4=O)n3ncnc23)cc1` [Compound 196], at MAPKAPK5, the IC50 was in the range of 101 to 500 nM. For the same molecule, the EC50 in assay [2] (Table 4) is greater than 1000 nM.

Turning to `O=C(NCc1cc(-c2ccccc2)on1)c1ccc(Nc2ncc(-c3ccc4c(c3)CNC4=O)n3ncnc23)cc1` [Compound 197], the concentration for half-maximal inhibition (IC50) against MAPKAPK5 was greater than 1000 nM. The molecule further returned an EC50 in assay [2] (Table 4) greater than 1000 nM.

For the molecule `O=C(Nc1cn(Cc2ccccc2)cn1)c1ccc(Nc2ncc(-c3cn[nH]c3)n3ncnc23)cc1` [Compound 198], the IC50 on MAPKAPK5 was greater than 1000 nM. In assay [2] (Table 4), the EC50 is greater than 1000 nM.
